Patent US20240335433A1, “CELL CYCLE SYNCHRONIZATION PROCESS” (priority 2023, published 2024)
“Also recorded” adds a separate entry of the source.

Tests used:
mouse gut crypt cells = assay: Cell cycle synchrony of gut crypt cells after repeated injections (EDU/BRDU incorporation, cyclin D1 staining); conditions: for ability to induce cell cycle synchrony in the mouse gut: EDU: high concentrations; for cell cycle synchrony of gut cells: four 10-hour injections separated by 40 hours without injection, repeated four times
Description: All experiments were performed according to separate protocols approved by IACUC committees at the following institutions: the Northeast Ohio Medical University, and Case Western Reserve University. Studies of cell cycle length were approved by the IACUC of the Cleveland State University. Recall that the proliferating cells of the small intestine are located near the basement membrane in regions termed the crypt. Cells in this region are the only cells that proliferate in the gut, with the exception of rare proliferation of support cells in the matrix of the villi. Epithelial cells in the crypt region are essentially all proliferating all the time. Consequently, they are actively labeled by a pulse of EDU to label cells in S phase. Cells not labeled with EDU are in G2-G1 phases, and are labeled with cyclin D1 (FIG. 6).
Finally, the tissue was analyzed a full 10 hours following the final topotecan injection.
As a control to the above studies, the tissues described above were stained for the expression of cyclin D1. […] Thus, upon entry into S phase the level of cyclin D1 is always reduced to near zero. It returns to high levels of expression upon entry into G2 phase, but only in cells that are actively proliferating. Therefore, an actively proliferating cell would incorporate EDU if it were in S phase, and it would express cyclin D1 if it were in any other cell cycle phase. If all the cells of a tissue either incorporate EDU or express high cyclin D1 levels, all the cells of the tissue are actively proliferating. […] Further analysis was performed at 2 hour intervals from 0 hours to 10 hours following the final topotecan injection.
Separate animals received injections of 0.20 ml of topotecan at 0.33 mg/ml, 0.20 mg/ml, or 0.12 ml of 0.20 mg/ml topotecan. Each animal was given four 10-hour injections of a given concentration, separated by 40 hours without injection; repeated four times. At 5 hours following the final topotecan injection, BRDU was injected into the animals to identify cells in S phase between the timed topotecan injection. Animals injected with BRDU were then injected again 5 hours later with EDU (10 hours after the final topotecan injection), to identify cells in S phase at the time the next successive topotecan injection would have taken place. 50 min following the EDU injection tissues were collected and analyzed.

Lewis lung carcinoma = Lewis lung carcinoma tumor growth in C57Bl/6 mice; format: in vivo, mouse; conditions: for inhibition of Lewis lung carcinoma tumor growth: Cell Cycle Therapy, IP injections every 10 hours 40 min with rest periods
Description: The Lewis Lung Carcinoma model is a commonly used tumor model for assessment of general anti-tumor activity. The cells can be grown in culture and then introduced underneath the skin on the back of syngeneic […] mice. When 1-2 million cells are introduced, tumors begin to form within 6-10 days. This is an extremely aggressive tumor, with doubling times of 3 days or less. […] In this study 2 million cells were injected underneath the skin on the mid back of the mice. The tumor was measured with calipers to determine its size. To confirm size measurements, the tumor was excised in total and weighed at the end of the experiment. All anti-tumor drug injections were intraperitoneal (IP). Mice in the range of 8-16 weeks of age were utilized, but within a given experiment, mice within the same age range were generally used for comparison. All studies were conducted under standard guidelines, and conformed to the protocol approved the Case Western Reserve and the Northeast Ohio Medical University IACUC. Weight loss was measured to determine animal health, with loss of over 20% an indication for experimental termination. Similarly, tumors were not allowed to grow beyond 15% of body weight.
The ability of a treatment regimen to block tumor growth was determined with injections of topotecan, either alone or in combination with EDU. […] In this case, the increase of tumor size was measured. […] In general, EDU injections of 0.2 ml of 9 mg/ml drug (in phosphate buffered saline) were performed. These injections involved intermittent rest periods, generally 1-2 rest periods between 4-5 EDU injections. To increase the effectiveness of EDU injections, two such injections were at times performed within a 20 min period every 10 hours 40 min.
When higher volumes were injected (0.23 ml) the rest times were increased. […] With 0.2 ml injections of topotecan ([…]), three injections were often followed by 4-5 rest periods (FIGS. 12 and 13A-C).
EDU was always injected at 9 mg/ml (0.2 ml per injection). 1-3 such injections were followed immediately, or after 1-5 rest periods, by 1-4 injections of topotecan (0.18 ml, 0.2 mg/ml).
The experiment involved 24 C57Bl/6 mice, each of which received injections of 2 million Lewis lung carcinoma cells under the skin on their backs. Three days later these animals were randomly divided into three groups. The first group received three injections of topotecan separated by the length of the cell cycle (10 hours 40 min). The three-injection set was then followed by a long rest period precisely equal to 5 cell cycle lengths; and the process was repeated (FIG. 14C). For comparison, another set of mice received a single injection at the same time each day. […] All topotecan injections were identical (0.2 ml of 0.18 mg/ml topotecan). As a control, 8 mice received 0.2 ml injections of phosphate buffered saline (PBS) at the same time as the cell cycle group. […]

[1] = Description: Analyses began with approximately 10% of the LD50 concentration. It was then escalated until overall toxicity to the animals was observed. The final concentration of topotecan injected was 0.33 mg/ml-0.2 mg/ml; 0.05-0.27 ml per injection (depending on the mouse strain and weight of the mouse). Following determination of general topotecan toxicity following multiple injections, it was necessary to determine if, as predicted, injections spaced apart by the length of the cell cycle would be less harmful to the animals.
[…] […] […] Thus, 9 injections at 8 hours, or 9 injections at 12 hours, 14 hours, 16 hours or 20 hours were performed, and the effect of these upon the animals determined. The 8 hour time was selected to definitely be shorter than the cell cycle, and 20 hours to be longer than the cell cycle, so that negative controls would be built into the protocol.

[2] = tested on: Lewis lung carcinoma tumors; assay: Cell cycle synchrony of Lewis lung carcinoma tumor cells (EDU labeling); format: in vivo, mouse; conditions: 9 injections separated by 10 hours, tumor-bearing C57Black mice
Description: All studies of tumor killing were performed exactly as described above for studies of cell cycle synchrony. Thus, 9 injections of topotecan were separated from one another by 10 hours in C57Black mice carrying a tumor of approximately 0.5 gm. EDU was injected into three different topotecan treated animals at 1 hour, 5 hour or 10 hours as a marker for DNA synthesis. A control tumor-bearing mouse received mock injections and was injected with EDU 5 hours after the final injection. […] together with normal gut tissue was collected and analyzed.

[3] = remark: listed apart in the source
Description: Extensive studies were conducted to determine the optimal spacing between injections for C57Bl/6 mice, as differences between mouse strains might exist. […] After the 9 injections spaced apart by these times were complete, the animals were weighed over the next 10 days to determine their overall health. […]

DNA synthesis = assay: Rate of DNA synthesis after topotecan (observation of the inventor)
Description: Topotecan treatments would be removed and followed at various times thereafter with an BRDU treatment.

NIH3T3 = assay: Cell cycle specific toxicity in NIH3T3 cultures (clonal survival after brief drug treatment); format: cell-based
Description: The examples were performed on the contact inhibited cell line, NIH3T3. […] They must be cultured so as to never reach confluence; since, like normal cells, they stop growing when becoming confluent on the culture plate. Thus, they are plated at 60,000 to 150,000 cells per 35 mm plate, and transferred to a new plate every 2-3 days. The cells must also be limited in passage number to ensure their growth rate is rapid. The definition of low passage cells will vary from one lab to another, and the actual cell cycle length of these cells may vary, but it is critical that from one experiment to another the length of the cell cycle remains constant.
Constant killing over a broad concentration range: The drug to be tested is diluted across a broad concentration range, and placed on separate actively proliferating NIH3T3 cultures for two hours. […] The plates are then fixed, stained with crystal violet, and the number of colonies counted and compared to a mock treated culture. […] Cloning of the cells following drug treatment allows a quantitative determination of the number of surviving cells.
Serum stimulated growth: NIH3T3 cells stop growing and enter quiescence when serum is reduced in the medium to 0.3%, so long as they are at a sufficient density on the plate. […] The drug to be analyzed is added for 3 hours at various times following serum addition, and then washed off. […]

[4] = Removal of thymidine analogues from circulation (S phase labelling window after injection); conditions: mouse, in vivo
Description: These two molecules become stably incorporated into DNA during DNA replication (S phase). When either is injected into mice, it labels at high levels only those tissue cells actively replicating DNA (in S phase) at that time. Because these drugs are both rapidly removed from circulation, only cells actively replicating DNA within 1 hour of injection are labelled. If the second drug is introduced into the same animal at a later time, thereafter, it too will label only those cells in S phase at the time of the second injection. The tissues are then collected and stained for BRDU and EDU with separate fluorescence tags. The intensity of each marker is then determined by fluorescent image analysis. Fortunately, it is the characteristic of dividing cells that these two labels are incorporated most efficiently into nuclei of cells near the middle of S phase. When the two injections are separated by the length of the cell cycle, therefore, both markers will be stained at maximal levels in the same cell. The cell cycle characteristics of a tissue can then be determined by comparing results following injections separated by increasing lengths of time.

[5] = injections every 24 hours for up to 20 days

N.N.[Cl][Pt][Cl] [cisplatin]
cell cycle synchrony of injected animals' cells (mouse gut crypt cells; repeated injections, any time between injections): at no time were the cisplatin injected cells synchronous
delay of tumor formation (Lewis lung carcinoma; daily injections): less than 3 days

CC[C@@]1(O)C(=O)OCc2c1cc1n(c2=O)Cc2cc3c(CN(C)C)c(O)ccc3nc2-1 [topotecan]
total amount of drug tolerated by the animals ([1]; 4 injections every 10 hours separated by 40 hours without injection): increased
ability of animals to survive repeated injections ([1]; 9 injections at 8, 12, 14, 16 or 20 hours between injections): had to be euthanized
cell cycle synchrony of gut epithelial cells (mouse gut crypt cells; 9 injections every 10 hours): complete cell cycle synchrony
cell cycle phase / EDU incorporation of crypt cells (mouse gut crypt cells; 9 injections every 10 hours, 4 to 8 hours following the final injection): in S phase; also recorded: high levels of EDU incorporation
cell cycle phase / EDU incorporation of crypt cells (mouse gut crypt cells; 9 injections every 10 hours, 2 hours and 10 hours following the final injection): low levels of EDU incorporation; also recorded: not synthesizing DNA
cyclin D1 expression in crypt cells (mouse gut crypt cells; 9 injections every 10 hours, 5 hours after the final injection): greatly reduced proportion of the cells
gut cells in S phase (EDU incorporation) (mouse gut crypt cells; 9 injections every 10 hours, 5 hours following the final injection): essentially all the cells were in S phase; also recorded: efficiently labeled with EDU
gut cells in S phase (EDU incorporation) (mouse gut crypt cells; 9 injections every 10 hours, 10 hours following the final injection): none of the cells were in S phase; also recorded: very little EDU labeling
cyclin D1 expression in crypt cells (mouse gut crypt cells; 9 injections every 10 hours, immediately after or 10 hours following the final injection): expressed at high levels
gut cells in S phase (EDU incorporation) (mouse gut crypt cells; 9 injections every 10 hours, immediately following the final injection): no cells were in S phase
gut morphology, EDU incorporation and synchrony of crypt cells (mouse gut crypt cells; 9 injections separated by 9 hours): unhealthy gut morphology and few gut cells able to incorporate EDU; also recorded: no evidence of cell cycle synchrony
cell cycle synchrony of normal gut cells in tumor-bearing animals (mouse gut crypt cells; 9 injections separated by 10 hours, C57Black mice with Lewis lung carcinoma): induced cell cycle synchrony; also recorded: have been synchronized
synchronization of gut tissues (mouse gut crypt cells; 9 injections separated by times other than every 10 hours): In no case were the tissues synchronized
ability to induce cell cycle synchrony in the mouse gut (mouse gut crypt cells): shown to induce cell cycle synchrony
cell cycle synchrony of gut cells (mouse gut crypt cells; 0.20 ml of 0.33 mg/ml or 0.20 mg/ml): almost complete
cell cycle synchrony of gut cells (mouse gut crypt cells; injected concentration 0.12 mg/ml): very little if any synchrony
cell cycle synchrony of the gut (mouse gut crypt cells; [5]): cell cycle synchrony of the gut was observed
crypt cell division interval (mouse gut crypt cells; [5]): 12 h
toxicity to gut tissue (mouse gut crypt cells; mouse, in vivo): Even greater toxicity
cell cycle synchrony of tumor cells (EDU labeling at 1, 5, 10 hours) [2]: had not been synchronized
inhibition of tumor appearance, longer than in untreated animals (Lewis lung carcinoma; Cell Cycle Therapy with injections every 10 hours 40 minutes and rest periods): 7 to 12 days
inhibition of Lewis lung carcinoma tumor growth (Lewis lung carcinoma): dramatically inhibited; also recorded: highly efficient in blocking tumor growth
tumor growth compared to the control group (Lewis lung carcinoma; FIG. 14B, both topotecan treatments (Cell Cycle and Daily)): dramatic decreases in tumor growth
reduction of tumor size (Lewis lung carcinoma; Lewis lung carcinoma, any treatment protocol tested): never been found in these studies to reduce tumor size
average tumor size relative to PBS treated animals (Lewis lung carcinoma; either protocol (Cell Cycle or daily), 9.5 days): ¼
tumor killing (Lewis lung carcinoma; [5]): tumor killing was enhanced
injection spacing best tolerated ([3]; 9 injections, spacings 9 h 30 min to 11 h 20 min, weight over next 10 days, C57Bl/6 mice): 10 hours 40 minutes
percent weight loss, injections separated by cell cycle length compared to daily injections ([3]; mouse, in vivo): dramatically reduced
toxicity on continued injections ([3]; mouse, in vivo): without developing significant toxicity
effect on rate of DNA synthesis (DNA synthesis): dramatically reduces the rate of DNA synthesis

C#Cc1cn([C@H]2C[C@H](O)[C@@H](CO)O2)c(=O)[nH]c1=O [EDU, 5-Ethynyl-2′-deoxyuridine]
ability to induce cell cycle synchrony in the mouse gut (mouse gut crypt cells): shown to induce cell cycle synchrony
inhibition of Lewis lung carcinoma tumor growth (Lewis lung carcinoma): reduction in tumor growth; also recorded: highly efficient in blocking tumor growth
toxicity to animals ([3]; EDU injections): not highly toxic to animals

COc1cc([C@@H]2c3cc4c(cc3[C@@H](O[C@@H]3O[C@@H]5CO[C@@H](C)O[C@H]5[C@H](O)[C@H]3O)[C@H]3COC(=O)[C@H]23)OCO4)cc(OC)c1O [Etoposide]
width of concentration range selectively toxic for S phase cells (NIH3T3): 10 fold

O=c1[nH]c(=O)n([C@H]2C[C@H](O)[C@@H](CO)O2)cc1Br [BRDU, Bromodeoxyuridine]
time after injection within which replicating cells are labelled (rapid removal from circulation) [4]: ≤ 1 h
